Data published in paper PMC6123649, “Structural basis for specific inhibition of the highly sensitive ShHTL7 receptor” (EMBO Reports, 2018).
Values joined by “and” are separate entries in the source; they are usually repeats but may differ in a detail not shown here. Equal values may be shown once. Read-outs that look alike come from different tables or passages of the source.

How the values were obtained:
ShHTL7 [1] = target: T1, ShHTL7 (Striga hermonthica, UniProt A0A0M3PNA2); experiment: Drug affinity response target stability (DARTS) assay; assay type: binding; settings: 100 μM compound; proteinase K 10 μg/ml
T1 sequence (A0A0M3PNA2 1-271): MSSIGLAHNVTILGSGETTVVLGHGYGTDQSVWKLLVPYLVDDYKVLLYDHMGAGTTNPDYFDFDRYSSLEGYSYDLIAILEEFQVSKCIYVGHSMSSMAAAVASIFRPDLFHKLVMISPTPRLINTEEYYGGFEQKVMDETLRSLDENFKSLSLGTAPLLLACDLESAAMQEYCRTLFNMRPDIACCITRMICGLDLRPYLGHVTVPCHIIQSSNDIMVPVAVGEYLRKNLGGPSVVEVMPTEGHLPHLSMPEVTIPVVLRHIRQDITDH
Procedure: ShHTL7 and mutants were diluted to a concentration of 30 μM in 50 mM Tris–HCl pH 7.5, 150 mM NaCl, 0.005% Tween‐20, incubated with GR24 at final concentration of 100 μM for 5 min, and separately with 100 μM Triton X‐100 for 2 h. One sample was kept aside for use as an undigested control. Proteinase K (Hampton Research) was then added to ShHTL7 protein to a final protease concentration of 10 μg/ml. Reactions were incubated at room temperature for 5 min and then SDS–PAGE loading buffer was added to stop the reaction, and the samples were immediately boiled for 3 min. Equal amounts of each sample, corresponding to 10 μg of protein, were run on a 4–20% gradient polyacrylamide gel (Bio‐Rad) and analyzed by Coomassie Blue staining 32.

ShHTL7 [2] = target: T1, ShHTL7; experiment: Intrinsic Triton fluorescence binding assay
Procedure: (§1) Triton X‐100 has an excitation and emission wavelength of 275 and 302 nm, respectively. ShHTL7, ShHTL7‐L143Y, AtD14, and OsD14 were incubated in 50 mM Tris–HCl pH 7.5, 150 mM NaCl, with or without 0.005% Tween‐20, at concentrations ranging from 10 μM to 1 nM (obtained using serial dilutions) with 154 nM of Triton X‐100 for 1–2 h, and fluorescence values were then measured by SpectraMax i3 (Molecular Devices) at excitation and detection wavelengths of 275 and 302 nm, respectively. […] Data were normalized to the background fluorescence from the protein to obtain the change in Triton X‐100 fluorescence intensity. To determine the K d, the changes in Triton X‐100 fluorescence intensity were plotted against the concentration of the protein using the single binding site model implemented in GraphPad (Prism 6).

AtD14 = target: T2, AtD14 (Arabidopsis thaliana, UniProt Q9SQR3); experiment: Intrinsic Triton fluorescence binding assay; settings: up to 5 μM of AtD14
T2 construct: made in house; host or cells: E. coli BL21 (DE3)
T2 sequence (Q9SQR3 1-267): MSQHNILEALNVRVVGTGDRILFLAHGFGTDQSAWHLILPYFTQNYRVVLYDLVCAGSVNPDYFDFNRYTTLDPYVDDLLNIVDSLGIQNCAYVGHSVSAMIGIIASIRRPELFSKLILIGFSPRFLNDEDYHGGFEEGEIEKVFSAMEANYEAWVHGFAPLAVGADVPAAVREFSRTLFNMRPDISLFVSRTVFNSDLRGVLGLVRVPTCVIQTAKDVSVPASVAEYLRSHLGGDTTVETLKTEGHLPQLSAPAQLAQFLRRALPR
Procedure: as §1

Striga hermonthica seeds = experiment: Striga hermonthica germination bioassay; assay type: in vivo
Procedure: Striga hermonthica seeds were collected from Sorghum bicolor field in Sudan. For germination bioassays, Striga seeds were first sterilized and pre‐conditioned as described before 31. […] Triton X‐100/GR24 mixtures were applied (50 μl per disk) in four replicates. Corresponding volumes of GR24 and sterile MiliQ water were included as positive and negative control, respectively. The petri dishes were sealed with parafilm, enfolded with aluminum foil, and incubated for 48 h at 30°C. The germinated (seeds with radicle emerging through the seed coat) and non‐germinated Striga seeds were recorded under a binocular, and germination percentage was calculated.

ShHTL7 L143Y mutant = experiment: Intrinsic Triton fluorescence binding assay; set-up: species or system Striga hermonthica
Procedure: as §1

[3] = system: ShHTL7 L143Y binding to ShMAX2; experiment: GST pulldown of ShMAX2; assay type: biochemical, Striga hermonthica
Procedure: (§2) Purified GST‐ShHTL7 wt, ShHTL7 L143Y, and ShHTL7‐H246N mutants were bound to the Glutathione Sepharose 4B Beads, where Triton is used in the lysis step and in certain samples Tween‐20 was used instead of Triton. Bound proteins were incubated with 20 μM GR24 and His6‐ShMAX2 lysate for 2 h and then washed with lysis buffer for three times and then ShHTL7 wt and mutants were eluted with the addition of 20 mM reduced glutathione. Thus, eluted protein was subjected to Western blot using antibody specific to 6XHis (anti‐His).

[4] = system: GR24‐dependent interaction of ShHTL7 with ShMAX2; experiment: GST pulldown of ShMAX2; assay type: biochemical, Striga hermonthica; settings: pre‐incubation of ShHTL7 with Triton; 20 μM GR24
Procedure: as §2

ShHTL7S95C = experiment: Intrinsic Triton fluorescence binding assay; set-up: species or system Striga hermonthica; settings: inactive ShHTL7S95C; buffer with 0.005% Tween‐20; converged after 2.5 h of incubation; read-out: dissociation constant (Kd), intrinsic Triton fluorescence
[5] = system: rice seeds cv. Nipponbare; experiment: Rice seed germination assay and growth of seedlings; assay type: in vivo; settings: 15 μM of Triton
Procedure: The rice seeds cv. Nipponbare were surface‐sterilized using 50 ml (2.5%) sodium hypochlorite with 0.4% of Tween‐20 for 15 min. After six subsequent washing steps with sterilized water, the rice seeds were kept in water at 30°C for overnight imbibition. About 2 ml of Triton X‐100 concentrations ranging from 1 to 100 μM and sterile MilliQ water (control) was added in 24‐well plates with six replications. One sterilized rice seed was put in each well and allowed to germinate for 48 h at 30°C. The germinated (radicle emergence) and non‐germinated seeds were recorded, and germination percentage was calculated. Then, same seeds were allowed to grow under light in growth cabinet for another 1 week. The length of […] seedlings was measured with roller and averaged.

Triton X-100
protection of ShHTL7 from digestion by proteinase K (ShHTL7 [1]): efficiently protected | Kd for the Triton-ShHTL7 association (ShHTL7 [2]; across methods and buffers (authors' reply in peer review file)): ~ 250 nM | Kd (ShHTL7 [2]; in the absence of Tween‐20, read-out: final Kd, intrinsic Triton fluorescence): 0.233 ± 0.03 µM | Kd (ShHTL7 [2]; wild-type ShHTL7, buffer with 0.005% Tween‐20, converged after 2.5 h of incubation, read-out: dissociation constant (Kd), intrinsic Triton fluorescence): 0.284 ± 0.022 µM | change of Triton fluorescence in presence of protein (AtD14): did not change | reduction in GR24‐induced germination (Striga hermonthica seeds; 15 μM Triton, GR24 0.125–1 nM, 2 days): ~ 50% and 50% | reduction of Striga germination by Triton (Striga hermonthica seeds; in vivo): up to 50% | binding to ShHTL7 L143Y mutant in vitro (ShHTL7 L143Y mutant): failed to bind | inhibition of ShMAX2 binding of ShHTL7 L143Y [3]: did not inhibit | effect on GR24‐dependent interaction of ShHTL7 with ShMAX2 [4]: inhibited | Kd (ShHTL7S95C): 0.195 ± 0.021 µM | effect on rice seed germination [5]: did neither inhibit | effect on rice seedling growth [5]: nor affected seedling growth
